Results reported in PubChem BioAssay AID248 (DTP/NCI, 2004).
“And” between values parts separate entries of the source, which are not always exact repeats. Equal values may be shown once. Toxic doses and inconclusive results are not listed. No stated cut-off is given here; in the data, active means T/C of 150% or more; inactive means T/C below 125%.

System: L1210 leukemia ip in BDF1 mice, survival T/C
Assay: NCI In Vivo Anticancer Drug Screen. Data for tumor model L1210 Leukemia (intraperitoneal) in B6D2F1 (BDF1) mice
Details: endpoint: mean survival time, higher = longer survival
Outline: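 Read-out is survival time, reported as the treated-group measurement over the vehicle-control measurement.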

[1] = dose: 100.0 mg/kg/injection, schedule: Q04DX002 (ip), vehicle: saline with Tween-80
[2] = dose: 200.0 mg/kg/injection, schedule: Q04DX002 (ip), vehicle: saline with Tween-80
[3] = dose: 100.0 mg/kg/injection, schedule: Q01DX009 (ip), vehicle: Klucel (hydroxypropylcellulose) (HPC)
[4] = dose: 100.0 mg/kg/injection, schedule: Q04DX003 (ip), vehicle: Klucel (hydroxypropylcellulose) (HPC)
[5] = dose: 200.0 mg/kg/injection, schedule: Q01DX009 (ip), vehicle: Klucel (hydroxypropylcellulose) (HPC)
[6] = dose: 200.0 mg/kg/injection, schedule: Q04DX003 (ip), vehicle: Klucel (hydroxypropylcellulose) (HPC)
[7] = dose: 400.0 mg/kg/injection, schedule: Q04DX003 (ip), vehicle: Klucel (hydroxypropylcellulose) (HPC)
[8] = dose: 100.0 mg/kg/injection, schedule: Q04DX003 (ip), vehicle: saline with Tween-80
[9] = dose: 200.0 mg/kg/injection, schedule: Q04DX003 (ip), vehicle: saline with Tween-80
[10] = dose: 400.0 mg/kg/injection, schedule: Q04DX003 (ip), vehicle: saline with Tween-80
[11] = dose: 100.0 mg/kg/injection, schedule: Q01DX001 (ip), vehicle: Klucel (hydroxypropylcellulose) (HPC)
[12] = dose: 200.0 mg/kg/injection, schedule: Q01DX001 (ip), vehicle: Klucel (hydroxypropylcellulose) (HPC)
[13] = dose: 100.0 mg/kg/injection, schedule: Q04DX003 (ip), vehicle: saline

Measured: T/C

N#CC(C#N)=CN1CCOCC1
inactive: [1] 87 % of control | [2] 87 % of control

c1cc2cc3c(cc2c2c1CC1c4cc5c(cc4CCN1C2)OCO5)OCO3 (stereo not drawn)
inactive: [3] 103 % of control | [4] 101 % of control | [5] 97 % of control | [6] 97 % of control | dose: 400.0 mg/kg/injection, schedule: Q01DX009 (ip), vehicle: Klucel (hydroxypropylcellulose) (HPC) 97 % of control | [7] 94 % of control

Cc1ccc(Oc2ccc3cc[n+](C)cc3c2)cc1
inactive: dose: 6.25 mg/kg/injection, schedule: Q04DX002 (ip), vehicle: DMSO 94 % of control | dose: 12.5 mg/kg/injection, schedule: Q04DX002 (ip), vehicle: DMSO 105 % of control | dose: 25.0 mg/kg/injection, schedule: Q04DX002 (ip), vehicle: DMSO 102 % of control

Cn1[nH]c(=O)[nH]c1=O
inactive: dose: 100.0 mg/kg/injection, schedule: Q04DX002 (ip), vehicle: saline 103 % of control | [8] 98 % of control and 87 % of control | dose: 200.0 mg/kg/injection, schedule: Q04DX002 (ip), vehicle: saline 100 % of control | [9] 93 % of control | dose: 400.0 mg/kg/injection, schedule: Q04DX002 (ip), vehicle: saline 103 % of control | [10] 90 % of control

NC(=O)C(F)(F)C(F)(F)C(F)(F)F
inactive: dose: 50.0 mg/kg/injection, schedule: Q01DX001 (ip), vehicle: Klucel (hydroxypropylcellulose) (HPC) 97 % of control | [11] 97 % of control | [12] 103 % of control

CCCCc1csc(=S)[nH]1
inactive: dose: 100.0 mg/kg/injection, schedule: Q01DX001 (sc), vehicle: carboxymethylcellulose (CMC) 100 % of control | dose: 200.0 mg/kg/injection, schedule: Q01DX001 (sc), vehicle: carboxymethylcellulose (CMC) 113 % of control | dose: 400.0 mg/kg/injection, schedule: Q01DX001 (sc), vehicle: carboxymethylcellulose (CMC) 110 % of control

CC(C)=CCC/C(C)=C/CNc1ncnc2c1ncn2C1OC(CO)C(O)C1O (stereo not drawn)
inactive: dose: 100.0 mg/kg/injection, schedule: Q01DX005 (ip), vehicle: saline 95 % of control | dose: 200.0 mg/kg/injection, schedule: Q01DX005 (ip), vehicle: saline 94 % of control

CC(C)(C)C1CCC([N+](=O)[O-])CC1 (stereo not drawn)
inactive: dose: 19.0 mg/kg/injection, schedule: Q01DX001 (ip), vehicle: other 103 % of control | dose: 19.0 mg/kg/injection, schedule: Q01DX009 (ip), vehicle: other 102 % of control | dose: 38.0 mg/kg/injection, schedule: Q01DX001 (ip), vehicle: other 97 % of control | dose: 38.0 mg/kg/injection, schedule: Q01DX009 (ip), vehicle: other 98 % of control | dose: 75.0 mg/kg/injection, schedule: Q01DX001 (ip), vehicle: other 95 % of control and 97 % of control

COc1cccc(CC(=O)NCCc2ccc(OC)c(OC)c2)c1
inactive: dose: 100.0 mg/kg/injection, schedule: Q01DX009 (ip), vehicle: saline with Tween-80 92 % of control | [8] 92 % of control | dose: 200.0 mg/kg/injection, schedule: Q01DX009 (ip), vehicle: saline with Tween-80 95 % of control | [9] 94 % of control | dose: 400.0 mg/kg/injection, schedule: Q01DX009 (ip), vehicle: saline with Tween-80 90 % of control | [10] 91 % of control

CCN(CC)CCOC(=O)c1ccccc1Nc1cccc(C)c1
inactive: dose: 4.0 mg/kg/injection, schedule: Q01DX015 (ip), vehicle: saline 98 % of control | dose: 8.0 mg/kg/injection, schedule: Q01DX015 (ip), vehicle: saline 102 % of control | dose: 16.0 mg/kg/injection, schedule: Q01DX015 (ip), vehicle: saline 98 % of control | dose: 32.0 mg/kg/injection, schedule: Q01DX015 (ip), vehicle: saline 106 % of control | dose: 50.0 mg/kg/injection, schedule: Q04DX003 (ip), vehicle: saline 101 % of control | [13] 103 % of control

CC1CCC(C(C)C)C(OC(=O)c2c([N+](=O)[O-])ccc([N+](=O)[O-])c2Br)C1 (stereo not drawn)
inactive: [3] 105 % of control | [5] 100 % of control

O=[N+]([O-])c1ccc2nc(=S)[nH]n2c1
inactive: dose: 100.0 mg/kg/injection, schedule: Q01DX001 (ip), vehicle: acetone 97 % of control | dose: 200.0 mg/kg/injection, schedule: Q01DX001 (ip), vehicle: acetone 93 % of control | dose: 400.0 mg/kg/injection, schedule: Q01DX001 (ip), vehicle: acetone 98 % of control

CCOC(=O)c1cnc(SC)nc1Nc1ccccc1Br
inactive: [4] 92 % of control | [6] 97 % of control | [7] 98 % of control

O=C(N/N=C\c1c[nH]c2ccccc12)N/N=C/c1c[nH]c2ccccc12
inactive: [1] 97 % of control | [2] 104 % of control | dose: 400.0 mg/kg/injection, schedule: Q04DX002 (ip), vehicle: saline with Tween-80 97 % of control

COc1cc([N+](=O)[O-])c(C)cc1NC(=O)c1ccc(OC)c(OC)c1
inactive: dose: 50.0 mg/kg/injection, schedule: Q01DX009 (ip), vehicle: saline 97 % of control | dose: 100.0 mg/kg/injection, schedule: Q01DX009 (ip), vehicle: saline 96 % of control | [13] 89 % of control | dose: 200.0 mg/kg/injection, schedule: Q01DX009 (ip), vehicle: saline 96 % of control | dose: 200.0 mg/kg/injection, schedule: Q04DX003 (ip), vehicle: saline 93 % of control | dose: 400.0 mg/kg/injection, schedule: Q01DX009 (ip), vehicle: saline 97 % of control | dose: 400.0 mg/kg/injection, schedule: Q04DX003 (ip), vehicle: saline 91 % of control

CC1CN1C(=O)Nc1ccc(Cl)cc1 (stereo not drawn)
inactive: dose: 25.0 mg/kg/injection, schedule: Q04DX002 (ip), vehicle: other 116 % of control | dose: 50.0 mg/kg/injection, schedule: Q04DX002 (ip), vehicle: other 100 % of control | dose: 100.0 mg/kg/injection, schedule: Q04DX002 (ip), vehicle: other 97 % of control and 91 % of control

COc1cc([C@@H]2c3cc4c(cc3[C@H](OC(C)=O)[C@H]3COC(=O)[C@@H]23)OCO4)cc(OC)c1OC
inactive: dose: 33.0 mg/kg/injection, schedule: Q01DX009 (ip), vehicle: saline with Tween-80 97 % of control | [4] 98 % of control | [6] 90 % of control

CC(C)(C)N(O)C(=O)NC1CCCCC1
inactive: [11] 92 % of control | [12] 91 % of control | dose: 400.0 mg/kg/injection, schedule: Q01DX001 (ip), vehicle: Klucel (hydroxypropylcellulose) (HPC) 103 % of control

CSc1nc(C)c(Br)c(N2CC2)n1
inactive: dose: 50.0 mg/kg/injection, schedule: Q01DX Z (ip), vehicle: methylcellulose (MC) 95 % of control

c1ccc(P2(c3ccccc3)(c3ccccc3)C3C4C5C6C4C2C6C53)cc1 (stereo not drawn)
inactive: [8] 104 % of control | [9] 109 % of control | [10] 90 % of control
